The record followed here is patent publication US8445509B2, “Fused heterocyclic derivatives and use thereof” (Takeda Pharmaceutical Company Limited, priority 2008, dated 2013).

Assay [1] concerns the target T1, FLT3 intracellular domain protein (Homo sapiens, UniProt P36888).
T1 construct: 7.5 ng/ml of FLT3 intracellular domain protein (Millipore); purchased Millipore
T1 sequence (P36888 564-993 limits assumed): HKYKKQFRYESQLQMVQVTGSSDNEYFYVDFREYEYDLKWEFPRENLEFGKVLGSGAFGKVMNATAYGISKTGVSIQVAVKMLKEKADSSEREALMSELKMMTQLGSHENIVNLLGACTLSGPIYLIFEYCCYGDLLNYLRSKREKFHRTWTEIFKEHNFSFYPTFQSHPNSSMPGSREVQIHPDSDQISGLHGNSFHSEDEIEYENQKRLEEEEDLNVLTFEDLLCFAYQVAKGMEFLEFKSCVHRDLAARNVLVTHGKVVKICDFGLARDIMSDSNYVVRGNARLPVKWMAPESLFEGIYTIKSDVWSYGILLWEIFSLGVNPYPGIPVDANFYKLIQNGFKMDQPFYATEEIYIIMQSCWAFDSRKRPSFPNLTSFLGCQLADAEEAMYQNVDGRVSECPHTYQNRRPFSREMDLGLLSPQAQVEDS
Nature of the assay: Fms Like Tyrosine Kinase 3 (FLT3) kinase inhibitory activity (AlphaScreen). The class given is biochemical. The conditions noted are these: for inhibition at 1 µM: 1 μM test compound, read-out: inhibitory rate (%) at 1 μM. The method, then:
A test compound dissolved in dimethyl sulfoxide (DMSO) was diluted with a buffer (50 mM Tris-HCl (pH 7.5), 5 mM MgCl2, 5 mM MnCl2, 2 mM dithiothreitol, 0.01% Tween-20). To this compound solution (5 μL) was added a buffer (10 μL) containing 7.5 ng/ml of FLT3 intracellular domain protein (Millipore) and 250 ng/mL of biotin labeled polypeptide biotinyl-poly-Glu:Tyr (4:1) (CIS bio International). At 5 min after mixing kinase enzyme and the compound and biotin labeled polypeptide, to the obtained mixture was added a buffer (10 μL) containing ATP (5 μM), the mixture was allowed to react at 25° C. for 10 min and the reaction was quenched with 25 μL of a stop solution (100 mM EDTA disodium salt, 62.5 mM HEPES buffer (pH 7.4), 250 mM NaCl, 0.1% bovine serum albumin, 10 μg/mL AlphaScreen assay streptavidin donor beads (Streptavidin Donor Beads: PerkinElmer), 10 μg/mL AlphaScreen assay anti-phosphotyrosine recognition antibody Y-100 binding acceptor beads (Anti-phosphotyrosine (P-Tyr-100) Acceptor beads: PerkinElmer)). The reaction solution was allowed to stand at 25° C. for 16 hrs, and the wells were counted using a plate reader (Envision™ (PerkinElmer)). The kinase inhibitory rate (%) of the test compound was calculated by the following formula: Inhibitory rate (%)=(1−(count of test compound−blank)÷(control−blank))×100
The count of the solution reacted without addition of the compound was used as a “control”, and the count of the solution without the compound and ATP was used as a “blank”.

The subject of assay [2] is Human blood cell cancer cell line MV-4-11. Nature of the assay: Human blood cell cancer cell line MV-4-11 growth inhibitory test. The class given is cell-based. Particulars: MV4-11, 72 h, culture for 3 days; for inhibition at 1 µM: 1 μM test substance, read-out: inhibitory rate (%) at 1 μM. The protocol: Human blood cell cancer cell line MV-4-11 (ATCC) was cultured in IMDM (Invitrogen) containing 10% bovine fetal serum in an incubator at 37° C., 5% CO2. MV-4-11 cells were treated with trypsin/EDTA and recovered. The cells were suspended in IMDM containing 10% bovine fetal serum, plated on a 96 well flat bottom plate at a cells density of 30,000 cells/50 μL per well. After culturing overnight, various concentrations of test substance were dissolved in IMDM containing 10% bovine fetal serum and added to each well by 50 μL. After culture for 3 days, a Cell counting kit-8 reagent (DOJINDO LABORATORIES) was added to each well by 10 μL, and reacted in an incubator at 37° C., 5% CO2 for 2-3 hr. After the reaction, the absorbance of each well at 450 nm was measured by a microtiter plate reader. The concentration of a test substance necessary for inhibiting the growth by 50% (IC50 value) was calculated using a cell proliferation rate with addition of the test substance at each concentration and according to the nonlinear regression analysis using GraphPad Prism [Sigmoidal dose response (variable slope)].

Assay [3] concerns Human gastric cancer cell line MKN-45. In words: Human gastric cancer cell line MKN-45 growth inhibitory test. The class given is cell-based. Particulars: MKN-45, 72 h, culture for 3 days; for inhibition at 1 µM: 1 μM test substance, read-out: inhibitory rate (%) at 1 μM; for IC50: read-out: IC50 value. The method, then: Human gastric cancer cell line MKN-45 (RIKEN BioResource Center) was cultured in RPMI1640 (Invitrogen) containing 10% bovine fetal serum in a gas incubator at 37° C., 5% CO2. MKN-45 cells were treated with trypsin/EDTA and recovered. The cells were suspended in RPMI1640 containing 0.3% bovine fetal serum, plated on a 96 well flat bottom plate at a cells density of 3000 cells/50 μL per well. After culturing overnight, various concentrations of test substance were dissolved in RPMI1640 containing 0.3% bovine fetal serum and added to each well by 50 μL. After culture for 3 days, a Cell counting kit-8 reagent (DOJINDO LABORATORIES) was added to each well by 10 μL, and reacted in an incubator at 37° C., 5% CO2 for 2-3 hr. After the reaction, the absorbance of each well at 450 nm was measured by a microtiter plate reader. The concentration of a test substance necessary for inhibiting the growth by 50% (IC50 value) was calculated using a cell proliferation rate with addition of the test substance at each concentration and according to the nonlinear regression analysis using GraphPad Prism [Sigmoidal dose response (variable slope)]. The cell proliferation rate (%) with addition of a test substance at each concentration was calculated by the following formula. As a positive control (100% growth), dimethyl sulfoxide was added instead of a test substance. As a negative control (0% growth), the compound of Reference Example 136 (WO2005/030140, Entry 104), which is a known c-Met inhibitor, was added in large excess (10 μM) instead of a test substance.

One may read the IC50 as the midpoint of a concentration-inhibition curve. Regarding `O=C(Nc1ccc(Oc2ccc3nc(NC(=O)C4CC4)cn3c2)c(F)c1)c1cccn(-c2ccc(F)cc2)c1=O` [Example 10, N-[4-({2-[(cyclopropylcarbonyl)amino]imidazo[1,2-a]pyridin-6-yl}oxy)-3-fluorophenyl]-1-(4-fluorophenyl)-2-oxo-1,2-dihydropyridine-3-carboxamide], the IC50 in assay [1], in assay [2] and in assay [3] was not above 1000 nM in each case. The figures for the inhibition at 1 µM in assay [1], in assay [2] and in assay [3] were not below 50%, not below 90% and not below 80%, respectively.
Take `O=C(Nc1cn2cc(Oc3ccc(NC(=O)C4(C(=O)Nc5ccc(F)cc5)CC4)cc3F)ccc2n1)C1CC1` [Example 11, N-[4-({2-[(cyclopropylcarbonyl)amino]imidazo[1,2-a]pyridin-6-yl}oxy)-3-fluorophenyl]-N′-(4-fluorophenyl)cyclopropane-1,1-dicarboxamide]: the IC50 in assay [1], in assay [2] and in assay [3] was not above 1000 nM in each case. Besides, the figures for the inhibition at 1 µM in assay [2] and in assay [3] were not below 90% and not below 80%, respectively.
Regarding `O=C(Nc1cn2cc(Oc3ccc(NC(=O)C4(C(=O)Nc5ccccc5)CC4)cc3F)ccc2n1)C1CC1` [Example 14, N-[4-({2-[(cyclopropylcarbonyl)amino]imidazo[1,2-a]pyridin-6-yl}oxy)-3-fluorophenyl]-N′-phenylcyclopropane-1,1-dicarboxamide], the IC50 in assay [1], in assay [2] and in assay [3] was not above 1000 nM each time. In addition, the inhibition at 1 µM in assay [2] was not below 90%; in assay [3], not below 80%.
For the compound `O=C(Nc1nc2ccc(Oc3ccc(NC(=O)C4(C(=O)Nc5ccccc5)CC4)cc3F)cc2s1)C1CC1` [Example 18, N-[4-({2-[(cyclopropylcarbonyl)amino]-1,3-benzothiazol-6-yl}oxy)-3-fluorophenyl]-N′-phenylcyclopropane-1,1-dicarboxamide], the IC50 in assay [1], in assay [2] and in assay [3] was not above 1000 nM throughout. The inhibition at 1 µM in assay [1] is not below 50%; in assay [2] it was not below 90%; in assay [3] it was not below 80%.
Consider `Cc1ccc(C(=O)Nc2ccc(Oc3ccc4nc(NC(=O)C5CC5)cn4c3)cc2)c(=O)n1-c1ccc(F)cc1` [Example 28, N-[4-({2-[(cyclopropylcarbonyl)amino]imidazo[1,2-a]pyridin-6-yl}oxy)phenyl]-1-(4-fluorophenyl)-6-methyl-2-oxo-1,2-dihydropyridine-3-carboxamide], for which the IC50 in assay [1], in assay [2] and in assay [3] was not above 1000 nM throughout. In addition, the inhibition at 1 µM in assay [1] is not below 50%; in assay [2], not below 90%; in assay [3] it was not below 80%.
In the case of `Cc1ccc(C(=O)Nc2ccc(Oc3ccc4nc(NC(=O)C5CC5)cn4c3)c(F)c2)[n+]([O-])c1-c1ccc(F)cc1` [Example 29, N-[4-({2-[(cyclopropylcarbonyl)amino]imidazo[1,2-a]pyridin-6-yl}oxy)-3-fluorophenyl]-6-(4-fluorophenyl)-5-methylpyridine-2-carboxamide 1-oxide], the IC50 in assay [1], in assay [2] and in assay [3] was not above 1000 nM in each case. The inhibition at 1 µM was not below 90% in assay [2] and not below 80% in assay [3].
On to `Cc1ccc(C(=O)Nc2ccc(Oc3ccc4nc(NC(=O)C5CC5)cn4c3)c(F)c2)c(=O)n1-c1ccc(F)cc1.Cl` [Example 32, N-[4-({2-[(cyclopropylcarbonyl)amino]imidazo[1,2-a]pyridin-6-yl}oxy)-3-fluorophenyl]-1-(4-fluorophenyl)-6-methyl-2-oxo-1,2-dihydropyridine-3-carboxamide hydrochloride], for which, in assay [2], the inhibition at 1 µM was not below 90% and the IC50 is not above 1000 nM. In addition, in assay [3], the inhibition at 1 µM is not below 80% and the IC50 was not above 1000 nM.
As to `Cc1ccc(C(=O)Nc2ccc(Oc3ccc4nc(NC(=O)C5CC5)cn4c3)c(F)c2)c(=O)n1-c1ccc(F)c(F)c1` [Example 45, N-[4-({2-[(cyclopropylcarbonyl)amino]imidazo[1,2-a]pyridin-6-yl}oxy)-3-fluorophenyl]-1-(3,4-difluorophenyl)-6-methyl-2-oxo-1,2-dihydropyridine-3-carboxamide], the IC50 in assay [1], in assay [2] and in assay [3] was not above 1000 nM each time. Moreover, the inhibition at 1 µM was not below 90% in assay [2] and not below 80% in assay [3].
Turning to `Cc1c(C(=O)Nc2ccc(Oc3ccc4nc(NC(=O)C5CC5)cn4c3)c(F)c2)c(=O)n(-c2ccccc2)n1C` [Example 46, N-[4-({2-[(cyclopropylcarbonyl)amino]imidazo[1,2-a]pyridin-6-yl}oxy)-3-fluorophenyl]-1,5-dimethyl-3-oxo-2-phenyl-2,3-dihydro-1H-pyrazole-4-carboxamide], the IC50 in assay [1], in assay [2] and in assay [3] was not above 1000 nM throughout. Further, the inhibition at 1 µM in assay [2] is not below 90%; in assay [3] it was not below 80%.
On to `O=C(Nc1cn2cc(Oc3ccc(NC(=O)N4CCN(c5ccc(F)cc5)C4=O)cc3F)ccc2n1)C1CC1` [Example 53, N-[4-({2-[(cyclopropylcarbonyl)amino]imidazo[1,2-a]pyridin-6-yl}oxy)-3-sfluorophenyl]-3-(4-fluorophenyl)-2-oxoimidazolidine-1-carboxamide], for which the IC50 in assay [1], in assay [2] and in assay [3] was not above 1000 nM throughout. Also, the figures for the inhibition at 1 µM in assay [1], in assay [2] and in assay [3] were not below 50%, not below 90% and not below 80%, respectively.
Consider `Cc1ccc(C(=O)Nc2ccc(Oc3ccc4nc(NC(=O)C5CC5)cn4c3)c(Cl)c2)c(=O)n1-c1ccc(F)cc1` [Example 57, N-[3-chloro-4-({2-[(cyclopropylcarbonyl)amino]imidazo[1,2-a]pyridin-6-yl}oxy)phenyl]-1-(4-fluorophenyl)-6-methyl-2-oxo-1,2-dihydropyridine-3-carboxamide], for which the IC50 in assay [1], in assay [2] and in assay [3] was not above 1000 nM in each case. The inhibition at 1 µM in assay [2] is not below 90%; in assay [3], not below 80%.
